Measurements published in ChEMBL document CHEMBL3632463, “Discovery and structure-activity analysis of 4-((5-nitropyrimidin-4-yl)amino)benzimidamide derivatives as novel protein arginine methyltransferase 1 (PRMT1) inhibitors” (Bioorg Med Chem Lett, 2015).
Activity calls are given as the source filed them. The rule behind the calls is not given here.

Columns and labels:
[1] = target: T1, Protein arginine N-methyltransferase 1 (Homo sapiens, UniProt Q99873); assay: Inhibition of PRMT1 (unknown origin) using biotinylated histone H4-derived peptide as substrate at 50 uM after 60 mins by AlphaLISA assay
Target sequence in this assay (Q99873 whole entry, looked up): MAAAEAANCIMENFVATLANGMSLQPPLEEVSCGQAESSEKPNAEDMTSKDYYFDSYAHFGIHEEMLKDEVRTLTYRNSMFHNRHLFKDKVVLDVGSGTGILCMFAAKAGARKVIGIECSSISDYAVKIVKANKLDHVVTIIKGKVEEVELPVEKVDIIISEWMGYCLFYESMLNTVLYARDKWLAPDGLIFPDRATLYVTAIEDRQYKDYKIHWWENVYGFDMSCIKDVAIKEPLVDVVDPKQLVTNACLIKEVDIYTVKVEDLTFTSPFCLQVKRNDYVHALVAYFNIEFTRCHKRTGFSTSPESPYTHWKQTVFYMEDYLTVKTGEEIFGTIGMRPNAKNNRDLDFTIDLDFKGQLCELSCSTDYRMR

[2] = test system: SH-SY5Y; assay: Cytotoxicity against human SH-SY5Y cells by MTT assay; format: functional, cell-based
[3] = Cytotoxicity against human DLD1 cells by MTT assay; format: functional, cell-based; details: DLD-1
[4] = test system: MCF7; assay: Cytotoxicity against human MCF7 cells by MTT assay; format: functional, cell-based
[5] = test system: A-375; assay: Cytotoxicity against human A375 cells by MTT assay; format: functional, cell-based
[6] = Cytotoxicity against human UM-UC-3 cells by MTT assay; format: functional, cell-based; details: UMUC3
[7] = Cytotoxicity against human T24 cells by MTT assay; format: functional, cell-based; details: T-24
[8] = target: T1, Protein arginine N-methyltransferase 1; assay: Inhibition of PRMT1 in human DLD1 cells assessed as effect on symmetric dimethylation of histone H3R8 level at 1 to 30 uM by Western blotting; format: cell-based; details: DLD-1
Target sequence in this assay (Q99873 whole entry, looked up): as above

[9] = target: T2, Histone-arginine methyltransferase CARM1 (Homo sapiens, UniProt Q86X55); assay: Inhibition of PRMT4 (unknown origin) using biotinylated histone H4-derived peptide as substrate after 60 mins by AlphaLISA assay
T2 sequence (Q86X55 whole entry): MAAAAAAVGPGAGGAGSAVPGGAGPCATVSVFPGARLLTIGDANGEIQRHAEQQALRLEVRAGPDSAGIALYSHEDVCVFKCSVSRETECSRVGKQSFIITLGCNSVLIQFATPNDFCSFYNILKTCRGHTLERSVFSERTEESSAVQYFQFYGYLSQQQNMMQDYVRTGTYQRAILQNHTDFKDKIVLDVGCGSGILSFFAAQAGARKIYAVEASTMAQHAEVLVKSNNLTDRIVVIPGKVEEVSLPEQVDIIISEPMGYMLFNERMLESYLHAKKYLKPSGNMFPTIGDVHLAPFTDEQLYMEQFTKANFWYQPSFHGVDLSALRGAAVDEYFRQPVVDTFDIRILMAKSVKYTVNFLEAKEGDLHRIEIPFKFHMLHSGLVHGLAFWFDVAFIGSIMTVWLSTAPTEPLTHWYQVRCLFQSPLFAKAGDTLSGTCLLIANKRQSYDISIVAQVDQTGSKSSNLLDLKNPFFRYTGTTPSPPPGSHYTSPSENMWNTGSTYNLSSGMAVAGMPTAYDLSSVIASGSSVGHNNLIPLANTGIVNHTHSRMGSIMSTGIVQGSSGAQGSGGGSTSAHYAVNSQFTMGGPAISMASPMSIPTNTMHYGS

[10] = target: Protein arginine N-methyltransferase 5 (Homo sapiens, UniProt O14744); assay: Inhibition of PRMT5 (unknown origin) using biotinylated histone H4-derived peptide as substrate after 60 mins by AlphaLISA assay
[11] = target: T1, Protein arginine N-methyltransferase 1; assay: Non-competitive inhibition of PRMT1 (unknown origin) using biotinylated histone H4-derived peptide as substrate by Michaelis-Menten kinetic equation analysis
Target sequence in this assay (Q99873 whole entry): as the sequence (Q99873 whole entry, looked up) above

[12] = target: Protein arginine N-methyltransferase 6 (Homo sapiens, UniProt Q96LA8); assay: Inhibition of PRMT6 (unknown origin) using biotinylated histone H4-derived peptide as substrate after 60 mins by AlphaLISA assay
[13] = target: T1, Protein arginine N-methyltransferase 1; assay: Inhibition of PRMT1 in human DLD1 cells assessed as reduction of asymmetric dimethylation of histone H4R3 level at 3 uM by Western blotting; format: cell-based; details: DLD-1
Target sequence in this assay (Q99873 whole entry, looked up): as the sequence (Q99873 whole entry, looked up) above

[14] = target: T1, Protein arginine N-methyltransferase 1; assay: Inhibition of PRMT1 (unknown origin) using biotinylated histone H4-derived peptide as substrate after 60 mins by AlphaLISA assay
Target sequence in this assay (Q99873 whole entry): as the sequence (Q99873 whole entry, looked up) above

Chain of Protein arginine N-methyltransferase 5 (O14744 whole entry): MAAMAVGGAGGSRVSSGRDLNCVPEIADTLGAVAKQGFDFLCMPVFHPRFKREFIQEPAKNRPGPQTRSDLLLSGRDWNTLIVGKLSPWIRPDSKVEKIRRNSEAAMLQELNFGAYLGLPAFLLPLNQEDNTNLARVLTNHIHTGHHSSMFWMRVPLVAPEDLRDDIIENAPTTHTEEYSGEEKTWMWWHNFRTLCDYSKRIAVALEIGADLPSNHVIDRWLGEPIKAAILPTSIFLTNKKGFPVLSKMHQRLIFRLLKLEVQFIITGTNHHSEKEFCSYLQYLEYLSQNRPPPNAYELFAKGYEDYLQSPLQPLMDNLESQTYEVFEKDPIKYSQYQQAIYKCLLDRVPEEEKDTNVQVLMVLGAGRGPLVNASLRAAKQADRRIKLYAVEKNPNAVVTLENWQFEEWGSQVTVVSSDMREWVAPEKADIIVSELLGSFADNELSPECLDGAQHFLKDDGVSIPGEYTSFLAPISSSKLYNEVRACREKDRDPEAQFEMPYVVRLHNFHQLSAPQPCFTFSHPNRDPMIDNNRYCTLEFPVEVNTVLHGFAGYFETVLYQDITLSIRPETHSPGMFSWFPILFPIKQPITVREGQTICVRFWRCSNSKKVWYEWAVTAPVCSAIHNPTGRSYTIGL
Chain of Protein arginine N-methyltransferase 6 (Q96LA8 whole entry): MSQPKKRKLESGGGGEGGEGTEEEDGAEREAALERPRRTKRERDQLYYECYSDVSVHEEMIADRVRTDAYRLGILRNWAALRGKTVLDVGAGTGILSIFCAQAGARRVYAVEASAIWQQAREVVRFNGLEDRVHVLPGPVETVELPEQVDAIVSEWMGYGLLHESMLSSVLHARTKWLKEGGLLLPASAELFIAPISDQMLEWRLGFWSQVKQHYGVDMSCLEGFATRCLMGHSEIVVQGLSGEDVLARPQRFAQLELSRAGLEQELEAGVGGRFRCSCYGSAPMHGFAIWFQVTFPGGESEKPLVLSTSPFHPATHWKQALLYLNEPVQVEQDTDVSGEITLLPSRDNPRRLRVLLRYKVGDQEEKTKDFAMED

inhibition [1] [%]	SMILES	IC50 [2] [µM]	IC50 [3] [µM]	IC50 [4] [µM]	IC50 [5] [µM]	IC50 [6] [µM]	IC50 [7] [µM]	other results
9	N=C(N)c1ccc(Nc2ncnc(Nc3ccccc3)c2[N+](=O)[O-])cc1	–	–	–	–	–	–	–
28	N=C(N)c1ccc(Nc2ncnc(Nc3ccc(N)cc3)c2[N+](=O)[O-])cc1	–	–	–	–	–	–	–
28	N=C(N)c1ccc(Nc2ncnc(Nc3ccc(S(N)(=O)=O)cc3)c2[N+](=O)[O-])cc1	92.4	8.5	> 100	> 100	84.6	86.8	–
44	COc1cc(Nc2ncnc(Nc3ccc(C(=N)N)cc3)c2[N+](=O)[O-])cc(OC)c1OC	16.2	83.8	58.7	87.6	65.4	18.3	–
–	O=C(Nc1ccc2c(O)cc(S(=O)(=O)O)cc2c1)Nc1ccc2c(O)cc(S(=O)(=O)O)cc2c1	> 100	> 100	> 100	> 100	> 100	> 100	–
–	N#Cc1ccc(Nc2ncnc(Nc3ccc(C(=N)N)cc3)c2[N+](=O)[O-])cc1	11.4	4.4	50.6	> 100	45.4	13.1	inhibition [8]: inactive; IC50 [9]: 10 µM; IC50 [10]: > 100 µM; Ki [11]: 1.7 µM; IC50 [12]: > 100 µM; inhibition [13]: Active; IC50 [14]: 2 µM
49	N=C(N)c1ccc(Nc2ncnc(NCC(N)=O)c2[N+](=O)[O-])cc1	–	–	–	–	–	–	–
–	N=C(N)c1ccc(Nc2ncnc(Nc3ccc(C(N)=O)cc3)c2[N+](=O)[O-])cc1	–	–	–	–	–	–	IC50 [14]: 9.3 µM
